Measurements as given in patent US7288671B2, “Interleukin-1 and tumor necrosis factor-α modulators, synthesis of said modulators and their enantiomers and methods of using said modulators” (Nereus Pharmaceuticals, Inc., priority 1999, dated 2007).
Read-outs that look alike come from different tables or passages of the source.

How the values were obtained:
[1] = test system: COX-2 (cyclooxygenase-2); conditions: cited from earlier work
[2] = test system: iNOS (inducible nitric oxide synthase); conditions: cited from earlier work
[3] = test system: silicosis; conditions: mice; cited from earlier work
[4] = test system: IL-1 production; conditions: approximately 0.1 to approximately 1.0 microgram/ml for 48 hours; cited from earlier work
[5] = test system: IL-6 synthesis; experiment: SAC-induced IL-6 synthesis, RAW 264.7 macrophage cells; assay type: cell-based, Murine
Description: Murine macrophage cells RAW 264.7 (1×10^6/ml) were pretreated for 30-60 minutes with varying doses of the synthetic compound of Formula (I), the synthetic compound of formula (I) and a panel of analogs (diluted in 0.5% DMSO) prior to stimulation with various agents such as lipopolysaccharide (LPS) or a gram positive agent like heat-killed Staph aureus (SAC). Supernatants collected over a 72-hour period will be assayed for the levels of TNF-α, IL-1, IL-6, IL-10, IL-12 and other cytokines either by elisa or bioassay. Additional studies to evaluate the effects of the synthetic compound of Formulae (I), (II), (IIA) and (IIB) on cytokine signaling pathways such as, for example, Caspase-activity (Nr-1, Nr.3), transcription factors such as NF-kB, MAP-kinase activity (p38, ERK and JNK) will also be performed.

[6] = test system: mice; conditions: cited from earlier work
[7] = test system: IFN-γ (interferon-gamma); conditions: same conditions; cited from earlier work
[8] = test system: cirrhosis; conditions: mice; cited from earlier work
[9] = test system: TNF-α production; conditions: approximately 0.1 to approximately 1.0 microgram/ml for 48 hours; cited from earlier work
[10] = test system: IL-6; conditions: same conditions; cited from earlier work
[11] = test system: rat; conditions: cited from earlier work

Row | SMILES | fold more active than any other known triterpenoid in suppressing COX-2 [1] [fold] | fold more active than any other known triterpenoid in suppressing iNOS [2] [fold] | fibrotic granulomas (histologic analysis) [3] | inhibition of the IL-1 production [4] | inhibition of IL-6 synthesis [5] | toxicity [6] | toxicity ([6]; listed as 1) | LD ([6]; orally) | production of IFN-γ [7] | cirrotic liver cells (histologic analysis) [8] | inhibition of the TNF-α production [9] | production of IL-6 [10] | minimum lethal dose (MLD) ([11]; rat, in vivo) [mg/kg] | toxicity ([11]; rats)
1 | CC1(C)CC[C@]2(C(=O)O)CC[C@]3(C)[C@H](C(=O)C=C4[C@@]5(C)C=C(C#N)C(=O)C(C)(C)[C@@H]5CC[C@]43C)[C@@H]2C1 [Compound 54, 2-cyano-3,12-dioxoolean-1,9-dien-28-oic acid] | 500 | 500 |  |  |  |  |  |  |  |  |  |  |  | 
2 | C=C[C@@]1(C)CC=C2[C@@H](CC[C@@H]3[C@](C)(C(=O)O)CCC[C@@]23C)C1 [Formula (I), acanthoic acid] |  |  | substantial reduction of fibrotic granulomas | approximately 90% | neither analog TTL1 nor TTL3 significantly inhibited IL-6 synthesis | minimal toxicity | very little toxicity | > 300 mg/100 g of body weight | not affected | remarkable recovery of the cirrotic liver cells | approximately 90% | not affected | 1000 | minimal toxicity
